This passage reports pest or weed control and inhibition results from patent US9512120B2, “Microbicidally active imidazopyridine derivatives” (Syngenta Participations AG, priority 2013, dated 2016).

The subject of one assay is Pyrenophora teres. Put plainly: Pyrenophora teres / barley / leaf disc preventative (net blotch). Type of assay: in vivo. To be noted: foliar, barley leaf segments cv Hasso, inoculated two days after application, assessed 5-7 days after application, read-out: control of Pyrenophora teres (disease control compared to untreated). On the procedure:
Pyrenophora Teres/Barley/Leaf Disc Preventative (Net Blotch): Barley leaf segments cv Hasso are placed on agar in a 24-well plate and sprayed with formulated test compound diluted in water at an application rate of 200 ppm. The leaf segments are inoculated with a spore suspension of the fungus two days after application of the test solution. The inoculated leaf segments are incubated at 20° C. and 65% relative humidity under a light regime of 12/12 h (light/dark) in a climate cabinet and the activity of a compound is assessed as disease control compared to untreated when an appropriate level of disease damage appears in untreated check leaf segments (5-7 days after application).

In assay [1] the test system is Botryotinia fuckeliana (Botrytis cinerea). Put plainly: Botryotinia fuckeliana (Botrytis cinerea) / liquid culture (gray mould). Type of assay: cell-based. To be noted: Vogels broth, 24° C., 3-4 days after application, read-out: control of Botryotinia fuckeliana (inhibition of growth, photometric). The procedure: Botryotinia Fuckeliana (Botrytis cinerea)/Liquid Culture (Gray Mould): Conidia of the fungus from cryogenic storage were directly mixed into nutrient broth (Vogels broth). After placing a DMSO solution of test compound into a 96-well microtiter plate at an application rate of 200 ppm, the nutrient broth containing the fungal spores was added. The test plates were incubated at 24° C. and the inhibition of growth was determined photometrically 3-4 days after application.

For assay [2], the system named is Thanatephorus cucumeris (Rhizoctonia solani). Put plainly: Thanatephorus cucumeris (Rhizoctonia solani) / liquid culture (foot rot, damping-off). The format is cell-based. To be noted: PDB, 24° C., 3-4 days after application, read-out: control of Thanatephorus cucumeris (inhibition of growth, photometric). On the procedure:
Thanatephorus cucumeris (Rhizoctonia solani)/Liquid Culture (Foot Rot, Damping-Off): Mycelia fragments of a newly grown liquid culture of the fungus are directly mixed into nutrient broth (PDB potato dextrose broth). After placing a DMSO solution of the test compounds into a 96-well microtiter plate at an application rate of 200 ppm, the nutrient broth containing the fungal material was added. The test plates were incubated at 24° C. and the inhibition of growth was determined photometrically 3-4 days after application.

Assay [3] concerns Mycosphaerella graminicola (Septoria tritici). Put plainly: Mycosphaerella graminicola (Septoria tritici) / liquid culture (Septoria blotch). The format is cell-based. To be noted: Zymoseptoria tritici, PDB, 24° C., 4-5 days after application, read-out: control of Mycosphaerella graminicola (inhibition of growth, photometric). The procedure:
Mycosphaerella graminicola (Septoria tritici)/Liquid Culture (Septoria Blotch): Conidia of the fungus from cryogenic storage were directly mixed into nutrient broth (PDB potato dextrose broth). After placing a DMSO solution of test compound into a 96-well microtiter plate at an application rate of 200 ppm, the nutrient broth containing the fungal spores was added. The test plates were incubated at 24° C. and the inhibition of growth was determined photometrically 4-5 days after application.

Assay [4] concerns Puccinia recondita f. sp. Tritici. Put plainly: Puccinia recondita f. sp. tritici / wheat / leaf disc preventative (brown rust). Type of assay: in vivo. To be noted: foliar, wheat leaf segments cv Kanzler, inoculated 1 day after application, assessed 7-9 days after application, read-out: control of Puccinia recondita f. sp. Tritici (percent disease control compared to untreated). On the procedure:
Puccinia recondita f. Sp. Tritici/Wheat/Leaf Disc Preventative (Brown Rust): Wheat leaf segments cultivated variety (cv) Kanzler were placed on agar in 24-well plates and sprayed with formulated test compound diluted in water at an application rate of 200 ppm. The leaf disks were inoculated with a spore suspension of the fungus 1 day after application. The inoculated leaf segments were incubated at 19° C. and 75% relative humidity under a light regime of 12/12 h (light/dark) in a climate cabinet and the activity of a compound was assessed as percent disease control compared to untreated when an appropriate level of disease damage appears in untreated check leaf segments (7-9 days after application).

Molecules are shown by their SMILES.

Regarding `CCn1c(-n2ncnc2N)nc2cncc(-c3cccc(C(F)(F)F)c3)c21` [Compound 31, 2-[1-ethyl-7-[3-(trifluoromethyl)phenyl]imidazo[4,5-c]pyridin-2-yl]-1,2,4-triazol-3-amine], in the assay on Pyrenophora teres, the pest or weed control at 200 ppm is not below 80%. The inhibition at 20 ppm in assay [1] and in assay [2] was not below 80% throughout.
With `CCn1c(-n2ncnc2N)nc2cncc(-c3ccccc3C(F)(F)F)c21` [Compound 32, 2-[1-ethyl-7-[2-(trifluoromethyl)phenyl]imidazo[4,5-c]pyridin-2-yl]-1,2,4-triazol-3-amine], the pest or weed control at 200 ppm with Pyrenophora teres was not below 80%. Also, the inhibition – broadly, the relative decrease from the control value, in per cent – at 20 ppm in assay [2] is not below 80%.
Take `CCn1c(-n2ncnc2N)nc2cncc(-c3cccc(Cl)c3)c21` [Compound 34, 2-[7-(3-chlorophenyl)-1-ethylimidazo[4,5-c]pyridin-2-yl]-1,2,4-triazol-3-amine]: the pest or weed control at 200 ppm in the assay on Pyrenophora teres was not below 80%. The inhibition at 20 ppm in assay [1], in assay [2] and in assay [3] was not below 80% throughout.
Turning to `CCn1c(-n2ncnc2N)nc2cncc(-c3ccc(Cl)c(Cl)c3)c21` [Compound 36, 2-[7-(3,4-dichlorophenyl)-1-ethylimidazo[4,5-c]pyridin-2-yl]-1,2,4-triazol-3-amine], the pest or weed control at 200 ppm (in the assay on Pyrenophora teres; in assay [4]) was not below 80% each time. For the same compound, the inhibition at 20 ppm in assay [2] and in assay [3] was not below 80% each time.
As to `CCn1c(-n2ncnc2N)nc2cncc(-c3ccc(OC)c(F)c3)c21` [Compound 43, 2-[1-ethyl-7-(3-fluoro-4-methoxyphenyl)imidazo[4,5-c]pyridin-2-yl]-1,2,4-triazol-3-amine], the pest or weed control at 200 ppm with Pyrenophora teres is not below 80%. Also, the inhibition at 20 ppm in assay [1], in assay [2] and in assay [3] was not below 80% throughout.
For `CCn1c(-n2ncnc2N)nc2cncc(-c3ccc(C)c([N+](=O)[O-])c3)c21` [Compound 44, 2-[1-ethyl-7-(4-methyl-3-nitrophenyl)imidazo[4,5-c]pyridin-2-yl]-1,2,4-triazol-3-amine], the inhibition at 20 ppm in assay [2] is not below 80%.
In the case of `CCn1c(-n2ncnc2N)nc2cncc(-c3ccc(C)c(C)c3)c21` [Compound 46, 2-[7-(3,4-dimethylphenyl)-1-ethylimidazo[4,5-c]pyridin-2-yl]-1,2,4-triazol-3-amine], the inhibition at 20 ppm in assay [1], in assay [2] and in assay [3] was not below 80% throughout.
As for `CCn1c(-n2ncnc2N)nc2cncc(-c3cc(C)c(OC)c(C)c3)c21` [Compound 47, 2-[1-ethyl-7-(4-methoxy-3,5-dimethylphenyl)imidazo[4,5-c]pyridin-2-yl]-1,2,4-triazol-3-amine], the pest or weed control at 200 ppm (in the assay with Pyrenophora teres; in assay [4]) was not below 80% throughout. Also, in assay [2], the inhibition at 20 ppm was not below 80%.
`CCn1c(-n2ncnc2N)nc2cncc(-c3ccc(Cl)c(C(F)(F)F)c3)c21` [Compound 49]: the pest or weed control at 200 ppm with Pyrenophora teres is not below 80%. The inhibition at 20 ppm in assay [1], in assay [2] and in assay [3] was not below 80% in each case.
As for `CCn1c(-n2ncnc2N)nc2cncc(-c3cc4ccccc4o3)c21` [Compound 51, 2-[7-(1-benzofuran-2-yl)-1-ethylimidazo[4,5-c]pyridin-2-yl]-1,2,4-triazol-3-amine], the pest or weed control at 200 ppm in the assay on Pyrenophora teres is not below 80%. In addition, in assay [2], the inhibition at 20 ppm is not below 80%.
Take `CCn1c(-n2ncnc2N)nc2cncc(-c3cc(C)sc3C)c21` [Compound 52, 2-[7-(2,5-dimethylthiophen-3-yl)-1-ethylimidazo[4,5-c]pyridin-2-yl]-1,2,4-triazol-3-amine]: the inhibition at 20 ppm in assay [1], in assay [2] and in assay [3] was not below 80% each time.
On to `CCn1c(-n2ncnc2N)nc2cncc(-c3cccnc3OC)c21` [Compound 58, 2-[1-ethyl-7-(2-methoxypyridin-3-yl)imidazo[4,5-c]pyridin-2-yl]-1,2,4-triazol-3-amine], for which, in the assay with Pyrenophora teres, the pest or weed control at 200 ppm is not below 80%. Also, in assay [2], the inhibition at 20 ppm was not below 80%.
Turning to `CCn1c(-n2ncnc2N)nc2cncc(-c3ccc(C(F)(F)F)nc3)c21` [Compound 63, 2-[1-ethyl-7-[6-(trifluoromethyl)pyridin-3-yl]imidazo[4,5-c]pyridin-2-yl]-1,2,4-triazol-3-amine], the pest or weed control at 200 ppm with Pyrenophora teres was not below 80%. Besides, the inhibition at 20 ppm in assay [2] was not below 80%.
As to `CCn1c(-n2ncnc2N)nc2cncc(-c3cnc(Cl)c(C)c3)c21` [Compound 65, 2-[7-(6-chloro-5-methylpyridin-3-yl)-1-ethylimidazo[4,5-c]pyridin-2-yl]-1,2,4-triazol-3-amine], the pest or weed control at 200 ppm in the assay with Pyrenophora teres was not below 80%. For the same compound, the inhibition at 20 ppm in assay [2] was not below 80%.
With `CCn1c(-n2ncnc2N)nc2cncc(C=CC3CCCCC3)c21` [Compound 70, 2-[7-(2-cyclohexylethenyl)-1-ethylimidazo[4,5-c]pyridin-2-yl]-1,2,4-triazol-3-amine], the pest or weed control at 200 ppm in the assay with Pyrenophora teres is not below 80%. Moreover, the inhibition at 20 ppm in assay [3] was not below 80%.
As for `CCn1c(-n2ncnc2N)nc2cncc(C=Cc3ccc(C)cc3)c21` [Compound 71, 2-[1-ethyl-7-[2-(4-methylphenyl)ethenyl]imidazo[4,5-c]pyridin-2-yl]-1,2,4-triazol-3-amine], in assay [2], the inhibition at 20 ppm was not below 80%.
With `CCn1c(-n2ncnc2N2C(=O)CCC2=O)nc2cncc(C(C)=O)c21` [Compound 113, 1-[2-(7-acetyl-1-ethylimidazo[4,5-c]pyridin-2-yl)-1,2,4-triazol-3-yl]pyrrolidine-2,5-dione], the pest or weed control at 200 ppm in the assay with Pyrenophora teres is not below 80%.
Turning to `CCn1c(-n2ncnc2N2C(=O)CCC2=O)nc2cncc(-c3ccc(Cl)cc3Cl)c21` [Compound 114], the pest or weed control at 200 ppm in the assay on Pyrenophora teres is not below 80%.
As for `Nc1ncnn1-c1nc2cncc(-c3ccc(Cl)cc3Cl)c2n1C1CC1` [Compound 119, 2-[1-cyclopropyl-7-(2,4-dichlorophenyl)imidazo[4,5-c]pyridin-2-yl]-1,2,4-triazol-3-amine], in the assay on Pyrenophora teres, the pest or weed control at 200 ppm is not below 80%. Moreover, the inhibition at 20 ppm in assay [2] and in assay [3] was not below 80% each time.
On to `Nc1ncnn1-c1nc2cncc(-c3ccccc3Cl)c2n1C1CC1` [Compound 125, 2-[7-(2-chlorophenyl)-1-cyclopropylimidazo[4,5-c]pyridin-2-yl]-1,2,4-triazol-3-amine], for which the inhibition at 20 ppm in assay [2] is not below 80%.
Turning to `Nc1ncnn1-c1nc2cncc(-c3ccccc3Cl)c2n1C1CCCCC1` [Compound 126, 2-[7-(2-chlorophenyl)-1-cyclohexylimidazo[4,5-c]pyridin-2-yl]-1,2,4-triazol-3-amine], the inhibition at 20 ppm in assay [1] is not below 80%.
`CCOC(=O)C(C)O/N=C(\C)c1cncc2nc(-n3ncnc3N)n(CC)c12` (stereo not drawn) [Compound 159]: in assay [2], the inhibition at 20 ppm is not below 80%.
In the case of `CCn1c(-n2ncnc2N)nc2cncc(/C(C)=N/OCC(C)C)c21` [Compound 162], the pest or weed control at 200 ppm in assay [4] is not below 80%. Besides, the inhibition at 20 ppm in assay [2] and in assay [3] was not below 80% in each case.
For the compound `CCn1c(-n2ncnc2N)nc2cncc(C(C)=NOCc3cc(Cl)c(Cl)cc3Cl)c21` [Compound 164], in the assay on Pyrenophora teres, the pest or weed control at 200 ppm is not below 80%. Further, the inhibition at 20 ppm in assay [2] and in assay [3] was not below 80% each time.
Turning to `Cc1cncc2nc(-n3ncnc3N)n(C3CC3)c12` [Compound 175, 2-(1-cyclopropyl-7-methyl-imidazo[4,5-c]pyridin-2-yl)-1,2,4-triazol-3-amine], the pest or weed control at 200 ppm in the assay on Pyrenophora teres was not below 80%.
With `C=C(C)CO/N=C(\C)c1cncc2nc(-n3ncnc3N)n(CC)c12` [Compound 179], the inhibition at 20 ppm in assay [1], in assay [2] and in assay [3] was not below 80% each time.
